Test results published in patent US20240182431A1, “NEW CONTRAST AGENT FOR USE IN MAGNETIC RESONANCE IMAGING” (Bayer Aktiengesellschaft, priority 2021, published 2024).

How the values were obtained:
[1] = Partition coefficient (logP butanol/buffer); assay type: physicochemical; conditions: 1-butanol / 50 mM Tris-HCl, pH 7.4, room temperature
[2] = bovine plasma instead of human plasma, 1.5 T, 37° C., from Rohrer et al.; cited from earlier work
[3] = Excretion study in rats (5 days) and residual gadolinium organ distribution (7 days); assay type: in vivo, rat; conditions: male rats, 0.1 mmol Gd/kg bw i.v.; for Σ organs and carcass: 7 d post injection
Description: The excretion and organ distribution of Example 1 and 15 were determined in male rats (Han-Wistar, n=3). The compound was administered as a sterile aqueous solution (50 mmol Gd/L) as a bolus in the tail vein of the animals. The dose was 0.1 mmol Gd/kg bw.
Urine was collected in the following time periods 0-1 h, 1-3 h, 3-6 h, 6-24 h, 1-2 d and 2-5 d post injection […] and feces 0-1 d, 1-2 d and 2-5 d post injection. As a control, 3 animals were treated in the same way with RC1. On day 7 the animals were sacrificed, and the following organs were excised: blood, liver, kidney, spleen, heart, lung, brain, muscle, skin, stomach, gut, bone and bone marrow. The remaining carcass was freeze dried and ground to a fine powder. The Gd concentration in the organs and the carcass was determined by ICP-MS (ICP-MS Agilent 7500a, Waldbronn, Germany). The compounds are excreted via dual pathway (liver and kidney). Less than 1% of the administered dose was present in the body 7 days after the injection.

[4] = Biliary elimination in bile duct cannulated rats; conditions: BDC rats, i.v. bolus
Description: All animals are initially anesthetized using a body weight-adjusted intramuscular injection of a mixture (1+2) of xylazine hydrochloride (20 mg/mL, Rompun 2%, Bayer Vital GmbH, Leverkusen) and ketamine hydrochloride (100 mg/mL, Ketavet, Pfizer, Pharmacia GmbH, Berlin) using 1 mL/kg body weight. The continuous anesthesia of the animals is achieved by the intravenous injection of 1.5 mL per hour (Braun perfusor infusion of 1+2, 1:20 saline, xylazine hydrochloride 20 mg/mL, Rompun 2%, Bayer Vital GmbH, Leverkusen and ketamine hydrochloride 100 mg/mL, Ketavet, Pfizer, Pharmacia GmbH, Berlin) via tail vein (Introcan, 24G, yellow). The animals received 0.1 mol Gd/kg bw as intravenous bolus injection via tail vein (50 mmol Gd/L formulation). Bile was sampled 0-0.5 h, 0.5-1 h, 1-2 h, 2-3 h und 3-4 h post injection. […] The bile fractions (n=3 times 10 μL) were dried for 2 h at 90° C. and 50 μL 65% nitric acid (HNO3, Fa. Fisher, Optima Grade #1219010) and 30 μL hydrogen peroxide 30% (H2O2 Fa VWR Chemicals, AnalaR NORMAPUR, #18J024022) were added and processed in microwave oven (5 cycles: 5 min 40 W, 5 min 120 W, 10 min 200 W, 10 min 320 W and 25 min 400 W, Fa. CEM, Mars5 Xpress).

OATP1B1 = molecular target: T1, OATP1B1 (Homo sapiens, UniProt Q9Y6L6); experiment: Uptake into stable transfected OATP1B1 HEK 293 cells; assay type: cell-based; conditions: 100 μM, 40 min, relative to RC1
T1 sequence (Q9Y6L6 1-691): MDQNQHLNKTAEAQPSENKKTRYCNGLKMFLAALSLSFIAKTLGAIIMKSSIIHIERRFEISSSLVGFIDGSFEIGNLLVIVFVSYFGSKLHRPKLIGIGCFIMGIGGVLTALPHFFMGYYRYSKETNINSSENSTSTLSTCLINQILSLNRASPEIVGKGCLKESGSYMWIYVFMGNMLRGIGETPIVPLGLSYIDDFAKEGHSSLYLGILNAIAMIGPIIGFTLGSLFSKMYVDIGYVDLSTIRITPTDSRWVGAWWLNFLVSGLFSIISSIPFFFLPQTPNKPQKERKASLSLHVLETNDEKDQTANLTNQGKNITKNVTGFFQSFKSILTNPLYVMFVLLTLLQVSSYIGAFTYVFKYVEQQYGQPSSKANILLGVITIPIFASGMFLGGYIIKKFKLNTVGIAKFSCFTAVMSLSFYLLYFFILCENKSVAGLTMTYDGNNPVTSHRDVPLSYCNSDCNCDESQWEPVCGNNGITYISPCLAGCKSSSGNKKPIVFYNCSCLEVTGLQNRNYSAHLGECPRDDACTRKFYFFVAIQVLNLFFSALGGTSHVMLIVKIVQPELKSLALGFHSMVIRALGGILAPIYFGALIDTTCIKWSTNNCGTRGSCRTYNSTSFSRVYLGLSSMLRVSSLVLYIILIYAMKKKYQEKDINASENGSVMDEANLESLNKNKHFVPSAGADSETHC
Description: Cryopreserved cells were shortly thawed in water bath and diluted in 10 mL warm culture medium (37° C.). After medium change the cells were grown for 3 d in a 25 cm^2 cell culture flask. After 3 to 5 d the cells were transferred into 75 cm^2 flasks. […] All test items were prepared in transport buffer at a final concentration of 100 μM from stock solutions (180 to 500 mM concentration). The OATP1B1 HEK 293 cells were incubated with test solutions (test item in transport buffer 500 μL) for 40 min on a thermoshaker without shaking (PHMP, Fa. Grant Bio). Triplicates were performed for each test item. After incubation the cells were washed with 2 mL of cold PBS (+) buffer (Dulbeccos PBS+, Fa. Gibco). The OATP1B1 HEK 293 cells were lysed by addition of 500 μL cold 0.01% Triton-X 100 in Millipore water for 1 h. […] After 1 h 500 μL of 1 nM Terbium ICP-MS standard was added in 2% nitric acid and 0.01% Triton 100.

[5] = cited from earlier work

In the case of `O=C([O-])CN1CCN(CC(=O)[O-])CCN([C@H](CO)[C@H](O)CO)CCN(CC(=O)[O-])CC1.[Gd+3]` (racemic) [RC3, gadobutrol, reference compound], the “Log P (butanol/buffer)” value [1] is given as −2.22 and the r1 human plasma [2] is given as 5.2 L/mmol/s.

For `CCOc1ccc(CCOCC(C(=O)O)N2CCN(CC(=O)[O-])CCN(CC(=O)[O-])CCN(CC(=O)[O-])CC2)cc1.[Gd+3]` (stereo not shown) [Example 1, gadolinium 2,2′,2″-(10-{1-carboxy-2-[2-(4-ethoxyphenyl)ethoxy]ethyl}-1,4,7,10-tetraazacyclododecane-1,4,7-triyl)triacetate], the “Excretion Urine” value ([3]; 0-1 h post injection) was 39.8 ± 6.8% Dose, the “Excretion Feces” value ([3]; 0-1 d post injection) was 55.6 ± 5.6% Dose and the “Excretion Urine” value ([3]; 1-3 h post injection) was 40.3 ± 6.8% Dose. For the same molecule, the “Excretion Feces” value ([3]; 1-2 d post injection) was 56.9 ± 6.6% Dose, the “Excretion Urine” value ([3]; 1-2 d post injection) was 40.9 ± 7.4% Dose and the “Excretion Feces” value ([3]; 2-5 d post injection) was 57.0 ± 6.6% Dose. The “Excretion Urine” value ([3]; 2-5 d post injection) was 40.9 ± 7.4% Dose, the “Excretion Urine” value ([3]; 3-6 h post injection) was 40.3 ± 6.8% Dose and the “Excretion Urine” value ([3]; 6-24 h post injection) was 40.8 ± 7.4% Dose. For the same molecule, the “Σ organs and carcass” value [3] was 0.65 ± 0.07% Dose, the Total recovery [3] was 98.6 ± 2.1% Dose and the “Log P (butanol/buffer)” value [1] was −0.98. For the same molecule, the “Biliary excretion, Mean ± SD (cumulative)” value (from here on “Biliary excretion, Mean ± SD”) ([4]; bile fraction 0-0.5 h) was 55.5 ± 1.7% of injected dose, the “Biliary excretion, Mean ± SD” value ([4]; bile fraction 0.5-1 h) was 62.6 ± 0.7% of injected dose and the “Biliary excretion, Mean ± SD” value ([4]; bile fraction 1-2 h) was 65.1 ± 1.3% of injected dose. The “Biliary excretion, Mean ± SD” value ([4]; bile fraction 2-3 h) was 65.6 ± 1.6% of injected dose and the “Biliary excretion, Mean ± SD” value ([4]; bile fraction 3-4 h) was 65.8 ± 1.7% of injected dose.

With `CCOCCOCCOc1ccc(CCC[C@@H](C(=O)O)N2CCN([C@@H](CO)C(=O)[O-])CCN([C@@H](CO)C(=O)[O-])CCN([C@@H](CO)C(=O)[O-])CC2)cc1.[Gd+3]` [Example 15, gadolinium (2S,2′S,2″S)-2,2′,2″-{10-[(1S)-1-carboxy-4-{4-[2-(2-ethoxyethoxy)ethoxy]phenyl}butyl]-1,4,7,10-tetraazacyclododecane-1,4,7-triyl}tris(3-hydroxypropanoate)] the “Excretion Urine” value ([3]; 0-1 h post injection) was 12.6 ± 11.1% Dose, the “Excretion Feces” value ([3]; 0-1 d post injection) was 78.6 ± 6.2% Dose and the “Excretion Urine” value ([3]; 1-3 h post injection) was 17.3 ± 3.4% Dose. For the same molecule, the “Excretion Feces” value ([3]; 1-2 d post injection) was 80.0 ± 5.3% Dose, the “Excretion Urine” value ([3]; 1-2 d post injection) was 17.7 ± 3.3% Dose and the “Excretion Feces” value ([3]; 2-5 d post injection) was 80.0 ± 5.3% Dose. For the same molecule, the “Excretion Urine” value ([3]; 2-5 d post injection) was 17.7 ± 3.3% Dose, the “Excretion Urine” value ([3]; 3-6 h post injection) was 17.4 ± 3.3% Dose and the “Excretion Urine” value ([3]; 6-24 h post injection) was 17.6 ± 3.3% Dose. The “Σ organs and carcass” value [3] was 0.11 ± 0.03% Dose, the Total recovery [3] was 97.9 ± 5.4% Dose and the “Log P (butanol/buffer)” value [1] was −1.00.

With `CCOCCOCCOc1ccc(CCCC(C(=O)O)N2CCN(CC(=O)[O-])CCN(CC(=O)[O-])CCN(CC(=O)[O-])CC2)cc1.[Gd+3]` (stereo not shown) [Example 25, gadolinium 2,2′,2″-{10-[1-carboxy-4-{4-[2-(2-ethoxyethoxy)ethoxy]phenyl}butyl]-1,4,7,10-tetraazacyclododecane-1,4,7-triyl}triacetate] the “Uptake into OATP1B1-HEK 293 cells” value (OATP1B1) was 301 % of RC1 and the “Log P (butanol/buffer)” value [1] was −1.00.

For `O=C([O-])CN(CCN(CC(=O)[O-])CC(=O)[O-])CCN(CC(=O)[O-])C(COCc1ccccc1)C(=O)[O-].[Gd+3].[H+].[H+]` (stereo not shown) [Gd-BOPTA, gadobenic acid], the “secreted into the bile” value ([5]; Seale et al. 2009) is given as 3-to-5%.

In the case of `CCOc1ccc(C[C@@H](CN(CCN(CC(=O)[O-])CC(=O)[O-])CC(=O)[O-])N(CC(=O)[O-])CC(=O)[O-])cc1.[Gd+3].[H+].[H+]` [Gd-EOB-DTPA, gadoxetic acid], the “excreted into the bile” value ([5]; in vivo) is listed as “up to 50 % of the administered dose”.

For `O=C([O-])CN(CCN(CC(=O)[O-])CC(=O)[O-])CCN(CC(=O)[O-])C(COCc1ccccc1)C(=O)[O-].[Gd+3]` (stereo not shown) [RC2, Gd-BOPTA, reference compound], the “Log P (butanol/buffer)” value [1] is given as −2.07 and the r1 human plasma [2] is given as 4.1 L/mmol/s.
